Common to all, as to type: biochemical
Experiment [1] concerns the target CDC7/DBF4 (Homo sapiens, UniProt O00311). Briefly: Inhibition assay of Cdc7 activity (Dowex resin capture, 33P-ATP, MCM2 substrate). Particulars: Enzyme CDC7/DBF4. As for the experimental part: (§1) The inhibitory activity of putative kinase inhibitors and the potency of selected compounds were also determined using a trans-phosphorylation assay.
(§2) Specific peptide or protein substrates are trans-phosphorylated by their specific ser-thr or tyr kinase in the presence of ATP traced with ^33P-γ-ATP, and in the presence of their own optimal buffer and cofactors. At the end of the phosphorylation reaction, more than 98% unlabeled ATP and radioactive ATP is captured by an excess of the ion exchange dowex resin; the resin then settles down to the bottom of the reaction plate by gravity. Supernatant is subsequently withdrawn and transferred into a counting plate, then evaluated by β-counting.
(§3) As example herein are reported the assay conditions used for testing the compounds of formula (I) against cdc7 and cdk2 kinase.
Inhibition Assay of Cdc7 Activity
The inhibiting activity of putative Cdc7 inhibitors and the potency of selected compounds is determined through a method of assay based on the use of Dowex resin capture technology.
The assay consists of the transfer of radioactivity labeled phosphate moiety by the kinase to an acceptor substrate.
The resulting ^33P-labeled product is separated from unreacted tracer, transferred into a scintillation cocktail and light emitted is measured in a scintillation counter. […]

Experiment [2] addresses T1, CDK2/CYCA (Homo sapiens, UniProt P24941).
T1 construct: host or cells: baculovirus expression system (co-expression)
Briefly: Inhibition assay of Cdk2/Cyclin A activity (33P-ATP, histone H1 substrate). Particulars: Enzyme CDK2/CYCA. How it is done: as §1, §2, §3
To each well of the plate were added: • 10 μl test compound (10 increasing concentrations in the nM to uM range to generate a dose-response curve). The solvent for test compounds contained 3% DMSO. (final concentration 1%) • 10 μl substrate MCM2 ([…] final concentration), a mixture of cold ATP ([…] final concentration) and radioactive ATP (1/5000 molar ratio with cold ATP). • 10 μl enzyme (Cdc7/Dbf4, 2 nM final concentration) that started the reaction. […]

Experiment [3] addresses GSK3beta (Homo sapiens, UniProt P49841). The experiment can be described thus: Kinase inhibition assay, IC50 (Table A). The following applies: Enzyme GSK3beta. As for the experimental part:
(§4) The inhibiting activity of putative kinase inhibitors and the potency of selected compounds is determined through a method of assay based on the use of the Kinase-Glo® Luminescent Kinase Assay (commercially available from Promega corporation and described in Koresawa, M. and Okabe, T. (2004) High-throughput screening with quantitation of ATP consumption: A universal non-radioisotope, homogeneous assay for protein kinase. Assay Drug Dev. Technol. 2, 153-60).
as §1, §2
(§5) Reaction conditions are target (enzyme) dependent and thus undergo individual adaptations. Also the buffer conditions may vary depending on the kinase of interest. The assay can be used with virtually any kinase and substrate combination and is suitable for all type of protein kinases, such as ABL, ACK1, AKT1, ALK, AUR1, AUR2, BRK, BUB1, CDC7/DBF4, CDK21CYCA, CHK1, CK2, EEF2K, EGFR1, EphA2, EphB4, ERK2, FAK, FGFR1, FLT3, GSK3beta, Haspin, IGFR1, IKK2, IR, JAK1, JAK2, JAK3, KIT, LCK, LYN, MAPKAPK2, MELK, MET, MNK2, MPSI, MST4, NEK6, NIM1, P38alpha, PAK-4, PDGFR, PDK1, PERK, PIM1, PIM2, PKAalpha, PKCbeta, PLK1, RET, ROS1, SULU1, Syk, TLK2, TRKA, TYK, VEGFR2, VEGFR3, ZAP70.

Experiment [4] has as its target KIT (Homo sapiens, UniProt P10721). The experiment can be described thus: Kinase inhibition assay, IC50 (Table A). The following applies: Enzyme KIT. As for the experimental part:
as §4, §1, §2, §5

Experiment [5] concerns the target MELK (Homo sapiens, UniProt Q14680). Briefly: Kinase inhibition assay, IC50 (Table A). Particulars: Enzyme MELK. How it is done:
as §4, §1, §2, §5

CDC7/DBF4, sequence (O00311 whole entry): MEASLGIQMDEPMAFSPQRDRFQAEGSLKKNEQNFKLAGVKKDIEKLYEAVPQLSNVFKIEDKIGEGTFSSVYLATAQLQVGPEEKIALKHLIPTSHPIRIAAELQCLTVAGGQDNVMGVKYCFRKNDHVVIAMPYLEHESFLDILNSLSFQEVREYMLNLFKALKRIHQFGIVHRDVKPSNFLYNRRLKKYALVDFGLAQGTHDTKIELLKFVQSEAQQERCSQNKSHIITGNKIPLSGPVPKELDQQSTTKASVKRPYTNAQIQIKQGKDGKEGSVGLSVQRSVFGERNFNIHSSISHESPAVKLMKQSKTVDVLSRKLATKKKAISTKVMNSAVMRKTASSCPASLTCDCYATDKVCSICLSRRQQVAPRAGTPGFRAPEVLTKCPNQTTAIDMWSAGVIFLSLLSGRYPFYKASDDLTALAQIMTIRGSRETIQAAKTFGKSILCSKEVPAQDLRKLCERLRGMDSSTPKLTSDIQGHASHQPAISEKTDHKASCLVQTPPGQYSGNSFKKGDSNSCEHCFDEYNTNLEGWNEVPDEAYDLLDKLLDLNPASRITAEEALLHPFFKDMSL
CDC7/DBF4, sequence (Q9UBU7 whole entry partner): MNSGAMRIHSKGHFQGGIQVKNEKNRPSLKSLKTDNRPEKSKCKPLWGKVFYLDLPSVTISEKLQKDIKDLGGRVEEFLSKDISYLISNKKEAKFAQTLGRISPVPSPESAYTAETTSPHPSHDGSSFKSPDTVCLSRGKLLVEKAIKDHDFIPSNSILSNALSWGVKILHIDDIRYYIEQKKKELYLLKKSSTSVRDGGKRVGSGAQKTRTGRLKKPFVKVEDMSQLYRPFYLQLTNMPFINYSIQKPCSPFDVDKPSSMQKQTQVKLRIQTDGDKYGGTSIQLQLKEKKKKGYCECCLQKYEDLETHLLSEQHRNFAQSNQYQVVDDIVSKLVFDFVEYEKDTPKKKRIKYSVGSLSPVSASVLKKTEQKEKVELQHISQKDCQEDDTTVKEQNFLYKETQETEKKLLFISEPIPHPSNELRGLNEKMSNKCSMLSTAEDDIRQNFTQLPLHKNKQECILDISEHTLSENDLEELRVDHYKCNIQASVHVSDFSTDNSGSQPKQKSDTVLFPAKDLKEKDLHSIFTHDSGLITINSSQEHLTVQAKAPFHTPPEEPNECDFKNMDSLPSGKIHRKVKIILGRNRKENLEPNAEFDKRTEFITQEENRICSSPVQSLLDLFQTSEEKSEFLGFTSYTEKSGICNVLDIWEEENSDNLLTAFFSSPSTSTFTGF
KIT, sequence (P10721 26-976): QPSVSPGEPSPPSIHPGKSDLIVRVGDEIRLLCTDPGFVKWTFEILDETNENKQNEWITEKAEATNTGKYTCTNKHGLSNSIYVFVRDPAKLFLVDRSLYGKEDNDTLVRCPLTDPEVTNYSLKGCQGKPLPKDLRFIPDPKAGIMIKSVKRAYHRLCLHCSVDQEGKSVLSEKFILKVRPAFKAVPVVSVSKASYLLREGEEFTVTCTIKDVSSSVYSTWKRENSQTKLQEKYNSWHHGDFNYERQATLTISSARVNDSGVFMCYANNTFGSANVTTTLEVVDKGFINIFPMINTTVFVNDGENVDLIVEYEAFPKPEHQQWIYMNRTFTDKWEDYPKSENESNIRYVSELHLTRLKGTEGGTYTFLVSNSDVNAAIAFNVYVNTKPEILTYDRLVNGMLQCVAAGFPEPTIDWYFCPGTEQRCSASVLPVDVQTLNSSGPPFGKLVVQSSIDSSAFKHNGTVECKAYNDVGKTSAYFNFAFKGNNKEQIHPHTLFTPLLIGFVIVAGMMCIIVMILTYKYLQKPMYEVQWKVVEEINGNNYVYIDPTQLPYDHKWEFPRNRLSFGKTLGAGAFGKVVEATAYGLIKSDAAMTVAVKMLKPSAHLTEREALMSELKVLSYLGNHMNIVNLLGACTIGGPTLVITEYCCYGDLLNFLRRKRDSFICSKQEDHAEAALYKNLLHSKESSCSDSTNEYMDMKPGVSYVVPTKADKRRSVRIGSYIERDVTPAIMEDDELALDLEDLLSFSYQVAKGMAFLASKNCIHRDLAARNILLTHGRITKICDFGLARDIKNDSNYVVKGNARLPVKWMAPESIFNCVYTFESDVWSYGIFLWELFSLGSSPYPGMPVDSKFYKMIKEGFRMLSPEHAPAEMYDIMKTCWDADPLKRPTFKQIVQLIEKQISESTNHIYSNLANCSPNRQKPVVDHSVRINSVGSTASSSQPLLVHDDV
GSK3beta, sequence (P49841 whole entry): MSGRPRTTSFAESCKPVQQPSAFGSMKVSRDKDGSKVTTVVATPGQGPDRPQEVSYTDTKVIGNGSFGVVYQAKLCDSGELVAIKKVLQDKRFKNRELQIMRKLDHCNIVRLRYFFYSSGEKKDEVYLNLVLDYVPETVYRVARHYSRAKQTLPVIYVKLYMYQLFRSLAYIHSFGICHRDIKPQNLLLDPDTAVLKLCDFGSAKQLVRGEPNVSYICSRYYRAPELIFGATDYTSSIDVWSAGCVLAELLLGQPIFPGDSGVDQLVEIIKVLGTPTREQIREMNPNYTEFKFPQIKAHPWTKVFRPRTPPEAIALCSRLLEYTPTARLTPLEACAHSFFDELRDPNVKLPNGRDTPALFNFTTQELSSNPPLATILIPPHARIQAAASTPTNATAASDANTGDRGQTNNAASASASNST
MELK, sequence (Q14680 whole entry): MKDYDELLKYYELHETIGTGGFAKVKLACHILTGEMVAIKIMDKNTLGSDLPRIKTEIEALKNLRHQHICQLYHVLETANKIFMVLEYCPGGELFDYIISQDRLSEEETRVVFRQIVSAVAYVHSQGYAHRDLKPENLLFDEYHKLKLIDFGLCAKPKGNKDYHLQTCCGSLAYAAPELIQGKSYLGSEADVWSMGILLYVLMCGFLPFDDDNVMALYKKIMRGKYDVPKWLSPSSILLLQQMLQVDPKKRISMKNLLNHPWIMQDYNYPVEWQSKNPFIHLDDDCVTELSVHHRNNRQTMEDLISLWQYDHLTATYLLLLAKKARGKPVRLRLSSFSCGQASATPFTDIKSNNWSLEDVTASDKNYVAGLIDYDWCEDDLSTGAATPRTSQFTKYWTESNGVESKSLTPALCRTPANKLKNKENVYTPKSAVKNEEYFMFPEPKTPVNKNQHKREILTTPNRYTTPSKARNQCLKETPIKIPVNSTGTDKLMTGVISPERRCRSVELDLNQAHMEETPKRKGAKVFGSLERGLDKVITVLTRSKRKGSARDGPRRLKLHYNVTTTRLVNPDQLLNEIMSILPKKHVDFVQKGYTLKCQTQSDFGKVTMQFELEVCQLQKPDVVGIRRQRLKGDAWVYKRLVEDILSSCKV

Turning to `CNC(=O)c1cc2n(c1)CCc1c(NC(=O)c3ccc(N4CCN(C)CC4)cc3)n[nH]c1-2` [Example A16-M1-B18], the IC50 in experiment [1] was found to be 2990 nM; in experiment [2], 1900 nM; in experiment [3], 1920 nM; in experiment [4] it was 2610 nM; in experiment [5], 6330 nM.

The record behind these values is patent publication US9127015B2, “Tricyclopyrazole derivatives” (NERVIANO MEDICAL SCIENCES S.R.L., priority 2009, dated 2015).
